Measurements reported in ChEMBL document CHEMBL1201862, “PubChem BioAssay data set” (2004).
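Each compound was tested at five concentrations against cells in 96-well plates for 48 hours. The concentration for 50% growth inhibition is given as GI50.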 The source made the active and inactive calls. No stated cut-off is given here; in the data, active = GI50 up to about 1.1 µM and inactive = higher.

Tests used:
Assay in all cases: NCI tumour cell line growth inhibition, 48 h
786-0 = tested on: 786-0
SF-268 = tested on: SF-268
SR = tested on: SR
NCI-H23 = tested on: NCI-H23
SNB-19 = tested on: SNB-19
UO-31 = tested on: UO-31
NCI/ADR-RES = tested on: NCI/ADR-RES
CAKI-1 = tested on: CAKI-1
UACC-257 = tested on: UACC-257
HCT-116 = tested on: HCT-116
DU-145 = tested on: DU-145
SK-MEL-5 = tested on: SK-MEL-5
MDA-N = tested on: MDA-N
SK-MEL-28 = tested on: SK-MEL-28
SK-OV-3 = tested on: SK-OV-3
IGROV-1 = tested on: IGROV-1
UACC-62 = tested on: UACC-62
COLO 205 = tested on: COLO 205
RPMI-8226 = tested on: RPMI-8226
OVCAR-5 = tested on: OVCAR-5
NCI-H226 = tested on: NCI-H226
MCF7 = tested on: MCF7
KM12 = tested on: KM12
T47D = tested on: T47D
OVCAR-8 = tested on: OVCAR-8
Hs-578T = tested on: Hs-578T
HT-29 = tested on: HT-29
HOP-92 = tested on: HOP-92
SW-620 = tested on: SW-620
SF-539 = tested on: SF-539
PC-3 = tested on: PC-3
RXF 393 = tested on: RXF 393
MDA-MB-231 = tested on: MDA-MB-231
SNB-75 = tested on: SNB-75
HOP-62 = tested on: HOP-62
TK-10 = tested on: TK-10
EKVX = tested on: EKVX
K562 = tested on: K562
NCI-H522 = tested on: NCI-H522
MOLT-4 = tested on: MOLT-4
BT-549 = tested on: BT-549
A549 = tested on: A549
SN12C = tested on: SN12C
OVCAR-3 = tested on: OVCAR-3
OVCAR-4 = tested on: OVCAR-4
A498 = tested on: A498
ACHN = tested on: ACHN
MDA-MB-435 = tested on: MDA-MB-435
SK-MEL-2 = tested on: SK-MEL-2
HCT-15 = tested on: HCT-15
SF-295 = tested on: SF-295
U-251 = tested on: U-251
M14 = tested on: M14
HCC 2998 = tested on: HCC 2998
NCI-H460 = tested on: NCI-H460
Malme-3M = tested on: Malme-3M
LOX IMVI = tested on: LOX IMVI
CCRF-CEM = tested on: CCRF-CEM
HL-60 = tested on: HL-60

For `COc1ccc(/N=N/C(=N\c2ccccc2)c2ccc(N(CCC#N)CCC#N)cc2)cc1`, the GI50 (786-0) was 60.4 µM (inactive), the GI50 (SF-268) was 97.7 µM (inactive) and the GI50 (SR) was 25.9 µM (inactive). The GI50 (NCI-H23) was 51.4 µM (inactive), the GI50 (SNB-19) was > 100 µM (inactive) and the GI50 (UO-31) was 80.9 µM (inactive). For the same molecule, the GI50 (NCI/ADR-RES) was 95.3 µM (inactive), the GI50 (CAKI-1) was 80.7 µM (inactive) and the GI50 (UACC-257) was 23.8 µM (inactive). The GI50 (HCT-116) was 43.4 µM (inactive), the GI50 (DU-145) was 76.9 µM (inactive) and the GI50 (SK-MEL-5) was 47.1 µM (inactive). For the same molecule, the GI50 (MDA-N) was 85.9 µM (inactive), the GI50 (SK-MEL-28) was > 100 µM (inactive) and the GI50 (SK-OV-3) was > 100 µM (inactive). The GI50 (IGROV-1) was 23.4 µM (inactive), the GI50 (UACC-62) was 51.5 µM (inactive) and the GI50 (COLO 205) was 14.1 µM (inactive). The GI50 (RPMI-8226) was 41 µM (inactive), the GI50 (OVCAR-5) was > 100 µM (inactive) and the GI50 (NCI-H226) was > 100 µM (inactive). The GI50 (MCF7) was 22.5 µM (inactive), the GI50 (KM12) was 26 µM (inactive) and the GI50 (T47D) was 33.5 µM (inactive). The GI50 (OVCAR-8) was 45.3 µM (inactive), the GI50 (Hs-578T) was 45.8 µM (inactive) and the GI50 (HT-29) was 47.9 µM (inactive). The GI50 (HOP-92) was > 100 µM (inactive), the GI50 (SW-620) was > 100 µM (inactive) and the GI50 (SF-539) was 28 µM (inactive). For the same molecule, the GI50 (PC-3) was 40.6 µM (inactive), the GI50 (RXF 393) was 19.9 µM (inactive) and the GI50 (MDA-MB-231) was 22.9 µM (inactive). The GI50 (SNB-75) was 38.3 µM (inactive), the GI50 (HOP-62) was 89.5 µM (inactive) and the GI50 (TK-10) was 61.1 µM (inactive). The GI50 (EKVX) was 27.4 µM (inactive), the GI50 (K562) was 31.3 µM (inactive) and the GI50 (NCI-H522) was 22.7 µM (inactive). For the same molecule, the GI50 (MOLT-4) was 28.8 µM (inactive), the GI50 (BT-549) was 47.6 µM (inactive) and the GI50 (A549) was 49.2 µM (inactive). The GI50 (SN12C) was 88.9 µM (inactive), the GI50 (OVCAR-3) was 18 µM (inactive) and the GI50 (OVCAR-4) was 45.3 µM (inactive). The GI50 (A498) was 67.6 µM (inactive), the GI50 (ACHN) was > 100 µM (inactive) and the GI50 (MDA-MB-435) was 56.4 µM (inactive). For the same molecule, the GI50 (SK-MEL-2) was 30.3 µM (inactive), the GI50 (HCT-15) was 81.3 µM and the GI50 (SF-295) was 31.2 µM (inactive). For the same molecule, the GI50 (U-251) was 31.4 µM (inactive), the GI50 (M14) was 69.8 µM (inactive) and the GI50 (HCC 2998) was 33.2 µM (inactive). For the same molecule, the GI50 (NCI-H460) was 36.5 µM (inactive).
With `O=Cc1cccc2c1Oc1c(cccc1C(=O)O)S2` the GI50 (786-0) was 76.2 µM (inactive), the GI50 (SF-268) was 48.3 µM (inactive) and the GI50 (SR) was < 0.01 µM (active). For the same molecule, the GI50 (NCI-H23) was > 100 µM (inactive), the GI50 (SNB-19) was 87.7 µM (inactive) and the GI50 (UO-31) was 58.3 µM (inactive). For the same molecule, the GI50 (NCI/ADR-RES) was 36 µM (inactive), the GI50 (CAKI-1) was 81.1 µM (inactive) and the GI50 (UACC-257) was > 100 µM (inactive). For the same molecule, the GI50 (HCT-116) was 28.2 µM (inactive), the GI50 (DU-145) was 56.1 µM (inactive) and the GI50 (SK-MEL-5) was 67.1 µM (inactive). The GI50 (MDA-N) was 59.2 µM (inactive), the GI50 (SK-MEL-28) was > 100 µM (inactive) and the GI50 (SK-OV-3) was 61.8 µM (inactive). The GI50 (IGROV-1) was > 100 µM (inactive), the GI50 (UACC-62) was > 100 µM (inactive) and the GI50 (COLO 205) was 23.2 µM (inactive). The GI50 (RPMI-8226) was 25.7 µM (inactive), the GI50 (OVCAR-5) was > 100 µM (inactive) and the GI50 (NCI-H226) was > 100 µM (inactive). The GI50 (MCF7) was 89.3 µM (inactive), the GI50 (Malme-3M) was 81.3 µM (inactive) and the GI50 (KM12) was 13.7 µM (inactive). The GI50 (LOX IMVI) was 45.7 µM (inactive), the GI50 (T47D) was 83 µM (inactive) and the GI50 (OVCAR-8) was 53.7 µM (inactive). For the same molecule, the GI50 (Hs-578T) was 65.9 µM (inactive), the GI50 (HT-29) was > 100 µM (inactive) and the GI50 (HOP-92) was 70.8 µM (inactive). For the same molecule, the GI50 (SW-620) was > 100 µM (inactive), the GI50 (SF-539) was 38.9 µM (inactive) and the GI50 (PC-3) was > 100 µM (inactive). The GI50 (MDA-MB-231) was > 100 µM (inactive), the GI50 (SNB-75) was 78.7 µM (inactive) and the GI50 (HOP-62) was 49.9 µM (inactive). The GI50 (TK-10) was > 100 µM (inactive), the GI50 (EKVX) was 70.1 µM (inactive) and the GI50 (NCI-H522) was 81.5 µM (inactive). For the same molecule, the GI50 (MOLT-4) was 17.3 µM (inactive), the GI50 (BT-549) was > 100 µM (inactive) and the GI50 (A549) was 23.6 µM (inactive). The GI50 (SN12C) was 85.3 µM (inactive), the GI50 (OVCAR-3) was 33.3 µM (inactive) and the GI50 (OVCAR-4) was 98.4 µM (inactive). The GI50 (A498) was > 100 µM (inactive), the GI50 (ACHN) was 34.3 µM (inactive) and the GI50 (MDA-MB-435) was > 100 µM (inactive). The GI50 (SK-MEL-2) was > 100 µM (inactive), the GI50 (HCT-15) was 35.4 µM and the GI50 (SF-295) was 52.7 µM (inactive). The GI50 (U-251) was 62.7 µM (inactive), the GI50 (M14) was > 100 µM (inactive) and the GI50 (HCC 2998) was 57.4 µM (inactive). The GI50 (NCI-H460) was 50.4 µM (inactive).
With `Cc1ccc2nc(Cl)c(/C=N/N3C(=O)/C(=C/c4ccccc4S)N=C3c3ccccc3)cc2c1` the GI50 (786-0) was 54 µM (inactive), the GI50 (SF-268) was 36.6 µM (inactive) and the GI50 (SR) was 7.96 µM (inactive). The GI50 (SNB-19) was 52.8 µM (inactive), the GI50 (UO-31) was 21.9 µM (inactive) and the GI50 (NCI/ADR-RES) was 22.9 µM (inactive). For the same molecule, the GI50 (CAKI-1) was 44.6 µM (inactive), the GI50 (UACC-257) was 68.5 µM (inactive) and the GI50 (HCT-116) was 30.1 µM (inactive). The GI50 (CCRF-CEM) was 15.5 µM (inactive), the GI50 (DU-145) was 53.3 µM (inactive) and the GI50 (SK-MEL-5) was 31.6 µM (inactive). The GI50 (MDA-N) was 17 µM (inactive), the GI50 (SK-MEL-28) was > 100 µM (inactive) and the GI50 (HL-60) was 15.5 µM (inactive). The GI50 (SK-OV-3) was 22.2 µM (inactive), the GI50 (IGROV-1) was 29.1 µM (inactive) and the GI50 (UACC-62) was 38.7 µM (inactive). For the same molecule, the GI50 (COLO 205) was 28.2 µM (inactive), the GI50 (RPMI-8226) was 21.4 µM (inactive) and the GI50 (OVCAR-5) was > 100 µM (inactive). The GI50 (MCF7) was 26.9 µM (inactive), the GI50 (KM12) was 25.5 µM (inactive) and the GI50 (LOX IMVI) was 34.8 µM (inactive). The GI50 (T47D) was 48.5 µM (inactive), the GI50 (OVCAR-8) was 47.8 µM (inactive) and the GI50 (Hs-578T) was 22.3 µM (inactive). The GI50 (HT-29) was 42.8 µM (inactive), the GI50 (HOP-92) was 73.6 µM (inactive) and the GI50 (SW-620) was 39.2 µM (inactive). The GI50 (SF-539) was 15.2 µM (inactive), the GI50 (PC-3) was 38.3 µM (inactive) and the GI50 (MDA-MB-231) was > 100 µM (inactive). The GI50 (SNB-75) was 22.1 µM (inactive), the GI50 (HOP-62) was 27.7 µM (inactive) and the GI50 (TK-10) was 48.6 µM (inactive). For the same molecule, the GI50 (EKVX) was 59.7 µM (inactive), the GI50 (K562) was 11.7 µM (inactive) and the GI50 (MOLT-4) was 1.85 µM (inactive). For the same molecule, the GI50 (BT-549) was 49.5 µM (inactive), the GI50 (A549) was 33.4 µM (inactive) and the GI50 (SN12C) was 35.7 µM (inactive). The GI50 (OVCAR-3) was 4.8 µM (inactive), the GI50 (OVCAR-4) was 29.6 µM (inactive) and the GI50 (A498) was 29.5 µM (inactive). The GI50 (ACHN) was 46.6 µM (inactive), the GI50 (MDA-MB-435) was 12.6 µM (inactive) and the GI50 (SK-MEL-2) was 20.4 µM (inactive). The GI50 (HCT-15) was 37.8 µM, the GI50 (SF-295) was 25.3 µM (inactive) and the GI50 (U-251) was 28.1 µM (inactive). The GI50 (M14) was 23.3 µM (inactive), the GI50 (HCC 2998) was 45.3 µM (inactive) and the GI50 (NCI-H460) was 31.4 µM (inactive).
